Data from patent US8822441B2, “Ecdysterone synthesis derivative, preparation method and use thereof” (priority 2010, dated 2014).
Counter-ions that a name gives are not always drawn.

How the values were obtained:
[1] = system: InsR protein; details: 1×10^−5 mol/L; cited from earlier work
[2] = system: PI3K and GLUT-4 proteins; details: 1×10^−5M, P<0.05; cited from earlier work
[3] = system: β-TC3 cells; details: cited from earlier work
[4] = system: normal mice; assay: level of blood glucose in normal mice; type: in vivo, Kunming mouse; details: for effects in lowering glucose in normal mice: 5 mg/kg; for Blood glucose 3 d after dosing: 5th administration; for Blood glucose 3 d after dosing / Blood glucose 10 d after dosing: fasting 2 h, X ± S; for Blood glucose 10 d after dosing: 19th administration
Procedure: 40 male mice with a body weight of 21±1.8 g (Kunming mouse: SPF grade, male, provided by laboratory animal centre of Sichuan Academy of Chinese Medicine Sciences) were grouped into 4 groups randomly, which are control group, 5 mg/kg of the compound of formula I group, 5 mg/kg of the sodium salt of the compound of formula I group, and 25 mg/kg of Glibenclamide (manufactured by Tianjin Pacific Chemical & Pharmaceutical Co., LTD) group. For the control group, distilled water was given, while for other groups, corresponding medicaments were given. The medicament was intragastrically administered in 0.2 ml/10 g of administration volume twice daily. The administration was continued for 19 times. On the 5th time and 19th time and after thoroughly fasting for 2 h, the blood glucose value for each mouse was tested by a Blood Glucose Meter, and the results were recorded as follows: […]

[5] = system: HepG2 cells; assay: in vitro glucose consumption in HepG2 cells (glucose oxidase method); type: cell-based; details: for Glucose consumption / Glucose consumption increased: HepG2 cells; for Glucose consumption: 24 h, x ± s, n = 8; for Glucose consumption increased: versus blank control group
Procedure: HepG2 cells with good growth state were selected, and were digested with trypsinase and EDTA (ethylene diamine tetraacetic acid) digestive juice. After digestion was complete, the resulting mixture was formulated with DMEM (Dulbecco's Modified Eagle Medium) having 10% Fetal bovine serum (FBS) into single cell suspension. The cells were seeded into 96 well plates, with 1*10^4 cells per well. Once the cell confluence reached 50%, the medium was changed to high glucose DMEM without serum, starvation cultured for 12 h. The cell supernatant was pipetted, and fresh high glucose DMEM with or without medications was added. The cells were divided into a blank control group, a 20-hydroxy-β-ecdysterone group, and a compound of formula I group. After culturing for 24 h, each group was tested for the change of glucose in the medium by using the glucose oxidase method.

[6] = dissolution experiment (solubility in water); type: physicochemical; details: for amount of water necessarily for completely dissolving this product (1 g): 1 g of product; for solubility in water relative to 20-hydroxy-β-ecdysterone: fold of that of 20-hydroxy-β-ecdysterone
[7] = 5 mg/kg intragastrically twice daily
[8] = 5 mg/kg intragastrically twice daily, *P<0.05 vs control
[9] = 25 mg/kg intragastrically twice daily, *P<0.05 vs control

SMILES	effects in lowering glucose in normal mice [4]	Blood glucose 3 d after dosing [4, 7]	Blood glucose 10 d after dosing [4, 8]	Glucose consumption ([5]; 2 × 10^−7 M)	Glucose consumption increased ([5]; 2 × 10^−7 M)	Glucose consumption ([5]; 2 × 10^−8 M)	Glucose consumption increased ([5]; 2 × 10^−8 M)	Glucose consumption ([5]; 2 × 10^−9 M)	amount of water necessarily for completely dissolving this product (1 g) [6]	solubility in water relative to 20-hydroxy-β-ecdysterone [6]	further results
CC(C)(O)CC[C@@H](O)[C@](C)(O)[C@H]1CC[C@@]2(O)C3=CC(=O)[C@@H]4C[C@@H](O)[C@@H](O)C[C@]4(C)[C@H]3CC[C@]12C [ecdysterone]											expression of InsR protein in IR HepG2 cells [1]: significantly increases; expression of PI3K and GLUT-4 proteins in insulin resistant HepG2 cells [2]: increases; stimulating insulin secretion of β-TC3 cells [3]: does not have the action of stimulating insulin secretion
CC(C)(O)CC[C@H]1OP(=O)(O)O[C@]1(C)[C@H]1CC[C@@]2(O)C3=CC(=O)[C@@H]4C[C@@H](O)[C@@H](O)C[C@]4(C)C3CC[C@]12C (some centres unmarked) [the compound of formula I]	have the effects in lowering glucose	10.4 ± 1.7 mmol/L	9.1 ± 2.3* mmol/L	6.96 ± 0.23 mM	5.64 mM	6.51 ± 0.12 mM	5.19 mM	6.46 ± 0.19 mM	12 mL	10 fold	Glucose consumption increased ([5]; 2 × 10^−9 M): 5.14 mM; increase of the glucose consumption in HepG2 cells ([5]; concentration range 2×10^−7˜2×10^−9 M): above 500%
CC(C)(O)CC[C@@H](O)[C@](C)(O)[C@H]1CC[C@@]2(O)C3=CC(=O)[C@@H]4C[C@@H](O)[C@@H](O)C[C@]4(C)[C@H]3CC[C@]12C [20-hydroxy-β-ecdysterone, reference compound]				1.45 ± 0.28 mM	0.13 mM	1.38 ± 0.11 mM	0.06 mM	1.30 ± 0.23 mM			increase of the glucose consumption in HepG2 cells ([5]; concentration 2×10^−7˜2×10^−8 M): below 15%; effect for lowering glucose in HepG2 cells ([5]; concentration 2×10^−9 M): no effect
CC(C)(O)CC[C@H]1OP(=O)(O)O[C@]1(C)[C@H]1CC[C@@]2(O)C3=CC(=O)[C@@H]4C[C@@H](O)[C@@H](O)C[C@]4(C)C3CC[C@]12C (some centres unmarked) [sodium salt of the compound of formula I]	have the effects in lowering glucose	10.2 ± 1.9 mmol/L	9.8 ± 1.4* mmol/L						2.5 mL	50 fold	
COc1ccc(Cl)cc1C(=O)NCCc1ccc(S(=O)(=O)NC(=O)NC2CCCCC2)cc1 [Glibenclamide, reference compound]											Blood glucose 3 d after dosing [4, 9]: 9.3 ± 0.9* mmol/L; Blood glucose 10 d after dosing [4, 9]: 9.9 ± 0.9* mmol/L
